# From US8178506B2, “Oligomeric compounds and compositions for use in modulation of small non-coding RNAs” (Regulus Therapeutics Inc., priority 2003, dated 2012)
# In the oligonucleotide strings, read from the 5' end, every base follows the letter of its sugar. An asterisk marks phosphorothioate; unmarked linkages are phosphodiester. Other units and linkages are bracketed, terminal groups are in braces. A string of capitals states the bases alone. e = 2'-O-(2-methoxyethyl) (MOE); [5mC] = 5-methylcytosine; d = 2'-deoxy (DNA)
# Experiments:
# HeLa cells = test: Cell cycle assay in HeLa cells; type: cell-based, human; details: HeLa cells, 150 nM oligomeric compound; for % cells aneuploid / % cells in cell cycle phase G1 / % cells in cell cycle phase G2/M / % cells in cell cycle phase S / % cells in cell cycle phase subG1: 24 hours, relative to untreated control (UTC = 100); for % cells in cell cycle phase: G1 / % cells in cell cycle phase: G2/M / % cells in cell cycle phase: S / % cells in cell cycle phase: aneuploid / % cells in cell cycle phase: subG1: 48 hours after treatment, relative to untreated control (UTC=100)
# T47D cells = test: Caspase-3 activity assay (apoptosis) in T47D cells; details: for Fold Increase over UTC (caspase-3 activity, apoptosis) / Fold Increase over UTC (caspase activity): T47D cells, 48 hours; for Fold Increase over UTC (caspase-3 activity, apoptosis): 200 nM oligomeric compound; for Fold Increase over UTC (caspase activity) / apoptosis in T47D cells: 200 nM; for Fold Increase over UTC (caspase activity): relative to untreated control; for apoptosis in T47D cells: caspase assay, conclusion from Tables 9-12
substance,measurement,setting,value
328374 (eA*eG*e[5mC]*eT*eT*dT*dA*dG*d[5mC]*dT*dG*dG*dG*dT*d[5mC]*eA*eG*eG*eA*e[5mC]; antisense) [compound 328374],% cells aneuploid,HeLa cells,97%
same,% cells in cell cycle phase G1,HeLa cells,54%
same,% cells in cell cycle phase G2/M,HeLa cells,162%
same,% cells in cell cycle phase S,HeLa cells,115%
same,% cells in cell cycle phase subG1,HeLa cells,198%
same,% cells in cell cycle phase: G1,HeLa cells,65%
same,% cells in cell cycle phase: G2/M,HeLa cells,143%
same,% cells in cell cycle phase: S,HeLa cells,157%
same,% cells in cell cycle phase: aneuploid,HeLa cells,71%
same,% cells in cell cycle phase: subG1,HeLa cells,787%
same,"Fold Increase over UTC (caspase-3 activity, apoptosis)",T47D cells; experiment of Table 11,1.1 fold
328647 (eG*eG*eA*eG*eT*dA*dG*dA*dT*dG*dA*dT*dG*dG*dT*eT*eA*eG*e[5mC]*e[5mC]; antisense) [compound 328647],% cells aneuploid,HeLa cells,140%
same,% cells in cell cycle phase G1,HeLa cells,101%
same,% cells in cell cycle phase G2/M,HeLa cells,119%
same,% cells in cell cycle phase S,HeLa cells,92%
same,% cells in cell cycle phase subG1,HeLa cells,140%
same,% cells in cell cycle phase: G1,HeLa cells,69%
same,% cells in cell cycle phase: G2/M,HeLa cells,118%
same,% cells in cell cycle phase: S,HeLa cells,153%
same,% cells in cell cycle phase: aneuploid,HeLa cells,136%
same,% cells in cell cycle phase: subG1,HeLa cells,589%
same,Fold Increase over UTC (caspase activity),T47D cells,0.9
SEQ ID NO 522: gapmer of Tables 9-12 having this SEQ ID NO (antisense eA*eA*eT*eT*eG*dT*dA*dT*dG*dA*d[5mC]*dA*dT*dT*dA*eA*eA*eT*e[5mC]*eA),apoptosis in T47D cells,T47D cells,prevent or have a protective effect from apoptosis
328637 (eG*eG*eT*eT*e[5mC]*d[5mC]*dT*dA*dA*dT*dT*dA*dA*dA*d[5mC]*eA*eA*e[5mC]*e[5mC]*e[5mC]; antisense) [compound 328637],"Fold Increase over UTC (caspase-3 activity, apoptosis)",T47D cells; experiment of Table 11,1.0 fold
328390 (eG*eG*eA*eG*e[5mC]*d[5mC]*dT*dT*dG*d[5mC]*dG*d[5mC]*dT*d[5mC]*dA*eG*e[5mC]*eA*eT*eT; antisense) [compound 328390],"Fold Increase over UTC (caspase-3 activity, apoptosis)",T47D cells; experiment of Table 11,0.9 fold
SEQ ID NO 534: gapmer of Tables 9-12 having this SEQ ID NO (antisense eG*eA*e[5mC]*e[5mC]*eT*dG*d[5mC]*dT*dA*d[5mC]*dT*d[5mC]*dA*d[5mC]*dT*e[5mC]*eT*e[5mC]*eG*eT),apoptosis in T47D cells,T47D cells,prevent or have a protective effect from apoptosis
SEQ ID NO 528: gapmer of Tables 9-12 having this SEQ ID NO (antisense eT*eG*eT*eT*eG*d[5mC]*d[5mC]*dT*dA*dA*d[5mC]*dG*dA*dA*d[5mC]*eA*e[5mC]*eA*eG*eA),apoptosis in T47D cells,T47D cells,prevent or have a protective effect from apoptosis
328371 (eT*e[5mC]*e[5mC]*eA*eT*dA*dG*d[5mC]*dT*dT*dA*dG*d[5mC]*dA*dG*eG*eT*e[5mC]*e[5mC]*eA; antisense) [compound 328371],Fold Increase over UTC (caspase activity),T47D cells,1.2
SEQ ID NO 510: gapmer of Tables 9-12 having this SEQ ID NO (antisense eG*e[5mC]*e[5mC]*e[5mC]*eT*d[5mC]*dG*dA*d[5mC]*dG*dA*dA*dA*dA*d[5mC]*e[5mC]*eG*eA*e[5mC]*eT),apoptosis in T47D cells,T47D cells,prevent or have a protective effect from apoptosis
328410 (antisense eG*eG*eG*e[5mC]*e[5mC]*dT*dA*dT*d[5mC]*d[5mC]*dA*dA*dA*dG*dT*eG*eA*e[5mC]*eA*eG) [compound 328410],"Fold Increase over UTC (caspase-3 activity, apoptosis)",T47D cells; experiment of Table 11,1.5 fold
328375 (eT*eA*e[5mC]*e[5mC]*eA*dT*dA*d[5mC]*dA*dG*dA*dA*dA*d[5mC]*dA*e[5mC]*eA*eG*e[5mC]*eA; antisense) [compound 328375],"Fold Increase over UTC (caspase-3 activity, apoptosis)",T47D cells; experiment of Table 10,0.9 fold
328416 (antisense eA*e[5mC]*eA*eT*eT*dG*d[5mC]*dT*dA*dT*d[5mC]*dA*dT*dA*dA*eG*eA*eG*e[5mC]*eT) [compound 328416],Fold Increase over UTC (caspase activity),T47D cells,0.9
